Experiments:
Type in all cases: in vitro ADME
[1] = Assay 1. Stability in Simulated Gastric Fluid (SGF); details: 1 μM, 37° C., SGF pH 1.6 with pepsin
How it was run: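 Acylated compounds at a final 1 μM (diluted from 1 mM DMSO stock) were incubated at 37 °C in SGF of pH 1.6 NaCl buffer with FaSSIF powder and 0.1 mg/mL pepsin. Aliquots were quenched with acetonitrile at T0 and regular intervals, and degradation rates were determined by LC/MS.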

[2] = Assay 2. Stability in Simulated Intestinal Fluid (SIF); details: 1 μM, 37° C., SIF pH 6.7 with pancreatin
How it was run: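 Acylated compounds at 1 μM (from 1 mM DMSO stock) in fresh SIF: FaSSIF with pancreatin in pH 6.7 phosphate buffer, agitated at 37 °C. Aliquots from T0 onward quenched with 1 volume acetonitrile; LC/MS gives degradation rates.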

[3] = Assay 3. Fecal Incubation Stability; details: 1 or 10 μM, human fecal slurry, anaerobic

Row | SMILES | Assay 1 (SGF) (% Remaining @ 1 hours) [1] | Assay 2 (SIF) (% @ Remaining 4 hours) [2] | Assay 3 (% Remaining at 24 h) [3]
1 | O=C(CCc1c[nH]c2ccccc12)O[C@@H]1OC[C@@H](OC(=O)CCc2c[nH]c3ccccc23)[C@@H](OC(=O)CCc2c[nH]c3ccccc23)[C@H]1OC(=O)CCc1c[nH]c2ccccc12 [Compound 113, (2S,3R,4R,5R)-3,4,5-tris({[3-(1H-indol-3-yl)propanoyl]oxy})oxan-2-yl 3-(1H-indol-3-yl)propanoate] | C (C: >75% of the tested compound remaining) | A (A: <25% of the tested compound remaining) | A (A: <25% of the tested compound remaining)
2 | CCC(=O)O[C@H]1O[C@H](C(=O)O)[C@@H](OC(=O)CC)[C@H](OC(=O)CC)[C@H]1OC(=O)CC [Compound 79, (2S,3S,4S,5R,6R)-3,4,5,6-tetrakis(propanoyloxy)oxane-2-carboxylic Acid] | C (C: >75% of the tested compound remaining) | A (A: <25% of the tested compound remaining) | A (A: <25% of the tested compound remaining)
3 | CC(=O)O[C@@H]1[C@H](OC(C)=O)C=C(C(=O)O)C[C@H]1OC(C)=O [Compound 43, (3R,4S,5R)-3,4,5-triacetoxycyclohex-1-ene-1-carboxylic Acid] | C (C: >75% of the tested compound remaining) | C (C: >75% of the tested compound remaining) | B (B: 25-75% of the tested compound remaining)
4 | CCCC(=O)Oc1cc(OC(=O)CCC)c2c(c1)O[C@H](c1cc(OC(=O)CCC)c(OC(=O)CCC)c(OC(=O)CCC)c1)[C@H](OC(=O)c1cc(OC(=O)CCC)c(OC(=O)CCC)c(OC(=O)CCC)c1)C2 [Compound 3, [(2R,3R)-5,7-di(butanoyloxy)-2-[3,4,5-tri(butanoyloxy)phenyl]chroman-3-yl] 3,4,5-tri(butanoyloxy)benzoate] | C (C: >75% of the tested compound remaining) | C (C: >75% of the tested compound remaining) | C (C: >75% of the tested compound remaining)
5 | CCCC(=O)O[C@@H]1[C@H](OC(=O)CCC)C=C(C(=O)O)C[C@H]1OC(=O)CCC [Compound 255, (3R,4S,5R)-3,4,5-tris(butanoyloxy)cyclohex-1-ene-1-carboxylic Acid] | C (C: >75% of the tested compound remaining) | C (C: >75% of the tested compound remaining) | B (B: 25-75% of the tested compound remaining)
6 | CCC(=O)O[C@@H]1[C@@H](OC(=O)CC)[C@H](C)O[C@@H](OC(=O)/C=C/c2c[nH]c3ccccc23)[C@@H]1OC(=O)CC [Compound 134, (2S,3R,4R,5S,6S)-6-methyl-3,4,5-tris(propanoyloxy)oxan-2-yl (2E)-3-(1H-indol-3-yl)prop-2-enoate] | C (C: >75% of the tested compound remaining) | B (B: 25-75% of the tested compound remaining) | A (A: <25% of the tested compound remaining)
7 | CCC(=O)OC[C@H]1O[C@H](OC(=O)CCc2c[nH]c3ccccc23)[C@H](OC(=O)CC)[C@@H](OC(=O)CC)[C@@H]1OC(=O)CC [Compound 141, [(2R,3R,4S,5R,6R)-6-{[3-(1H-indol-3-yl)propanoyl]oxy}-3,4,5-tris(propanoyloxy)oxan-2-yl]methyl Propanoate] | C (C: >75% of the tested compound remaining) | A (A: <25% of the tested compound remaining) | A (A: <25% of the tested compound remaining)
8 | CCC(=O)O[C@H]1[C@H](OC(=O)Cc2c[nH]c3ccccc23)OC[C@@H](OC(=O)CC)[C@H]1OC(=O)CC [Compound 138, (2S,3R,4R,5R)-2-{[2-(1H-indol-3-yl)acetyl]oxy}-4,5-bis(propanoyloxy)oxan-3-yl Propanoate] | C (C: >75% of the tested compound remaining) | A (A: <25% of the tested compound remaining) | A (A: <25% of the tested compound remaining)
9 | CCCC(=O)O[C@@H]1[C@@H](OC(=O)CCC)[C@H](C)O[C@@H](OC(=O)CCc2c[nH]c3ccccc23)[C@@H]1OC(=O)CCC [Compound 116, (2S,3R,4R,5S,6S)-4,5-bis(butanoyloxy)-2-{[3-(1H-indol-3-yl)propanoyl]oxy}-6-methyloxan-3-yl Butanoate] | C (C: >75% of the tested compound remaining) | A (A: <25% of the tested compound remaining) | A (A: <25% of the tested compound remaining)
10 | CCCC(=O)O[C@@H]1[C@@H](OC(=O)CCC)[C@@H](OC(=O)CCc2c[nH]c3ccccc23)OC[C@H]1OC(=O)CCC [Compound 128, (2R,3R,4S,5R)-4,5-bis(butanoyloxy)-2-{[3-(1H-indol-3-yl)propanoyl]oxy}oxan-3-yl Butanoate] | C (C: >75% of the tested compound remaining) | A (A: <25% of the tested compound remaining) | A (A: <25% of the tested compound remaining)
11 | CCCC(=O)O[C@H]1[C@H](OC)OC[C@@H](OC(=O)CCC)[C@H]1OC(=O)CCC [Compound 83, (2R,3R,4R,5R)-3,5-bis(butanoyloxy)-2-methoxyoxan-4-yl Butanoate] | C (C: >75% of the tested compound remaining) | A (A: <25% of the tested compound remaining) | A (A: <25% of the tested compound remaining)
12 | CCC(=O)OC[C@H]1O[C@H](OC(=O)Cc2c[nH]c3ccccc23)[C@H](OC(=O)CC)[C@@H](OC(=O)CC)[C@@H]1OC(=O)CC [Compound 146, [(2R,3R,4S,5R,6R)-6-{[2-(1H-indol-3-yl)acetyl]oxy}-3,4,5-tris(propanoyloxy)oxan-2-yl]methyl Propanoate] | C (C: >75% of the tested compound remaining) | A (A: <25% of the tested compound remaining) | A (A: <25% of the tested compound remaining)
13 | CCC(=O)O[C@@H]1[C@@H](OC(=O)CC)[C@H](OC(=O)Cc2c[nH]c3ccccc23)OC[C@@H]1OC(=O)CC [Compound 135, (3S,4S,5R,6S)-6-{[2-(1H-indol-3-yl)acetyl]oxy}-4,5-bis(propanoyloxy)oxan-3-yl Propanoate] | C (C: >75% of the tested compound remaining) | A (A: <25% of the tested compound remaining) | A (A: <25% of the tested compound remaining)

Reference: patent US10953027B2, “Active agents and methods of their use for the treatment of metabolic disorders and nonalcoholic fatty liver disease” (Flagship Pioneering Innovations V, Inc., priority 2018, dated 2021)
